Reference: paper PMC12261219, “Comparative Evaluation of Thiol- and Amine-Conjugating Moieties for Endogenous Albumin Binding after Intravenous Administration” (ACS Pharmacology & Translational Science, 2025)
Several values for one entry are separate records, joined by “and”; a condition that tells them apart may be missing. Equal values may be shown once.

Assays:
CT26 colon cancer cells = settings: i.v.
Procedure: CT26 cells (5 × 10^5 in serum-free medium) were injected s.c. into the right flank of male Balb/c mice. […] 0.9% NaCl served as solvent control. Animals were controlled for distress development every day and tumor size was assessed regularly by caliper measurement. Tumor volume was calculated using the formula: (length × width^2)/2. In the overall survival experiments, mice were sacrificed by cervical dislocation in the case of a tumor length >20 mm, tumor ulceration or body weight loss >20%.

albumin (mouse serum) = target: T1, albumin (mouse serum) (Mus musculus, UniProt P07724); experiment: SEC-ICP-MS albumin binding in mouse serum; type: in vitro ADME; settings: for Pt195 in HMWF (albumin-bound) / Pt195 in LMWF: 100 µM, 37 °C
T1 construct: The serum was separated by centrifugation (two times 10 min at 900 g) after 10–20 min clotting at room temperature; from tissue; host or cells: serum of Balb/c mice
T1 sequence (P07724 25-608): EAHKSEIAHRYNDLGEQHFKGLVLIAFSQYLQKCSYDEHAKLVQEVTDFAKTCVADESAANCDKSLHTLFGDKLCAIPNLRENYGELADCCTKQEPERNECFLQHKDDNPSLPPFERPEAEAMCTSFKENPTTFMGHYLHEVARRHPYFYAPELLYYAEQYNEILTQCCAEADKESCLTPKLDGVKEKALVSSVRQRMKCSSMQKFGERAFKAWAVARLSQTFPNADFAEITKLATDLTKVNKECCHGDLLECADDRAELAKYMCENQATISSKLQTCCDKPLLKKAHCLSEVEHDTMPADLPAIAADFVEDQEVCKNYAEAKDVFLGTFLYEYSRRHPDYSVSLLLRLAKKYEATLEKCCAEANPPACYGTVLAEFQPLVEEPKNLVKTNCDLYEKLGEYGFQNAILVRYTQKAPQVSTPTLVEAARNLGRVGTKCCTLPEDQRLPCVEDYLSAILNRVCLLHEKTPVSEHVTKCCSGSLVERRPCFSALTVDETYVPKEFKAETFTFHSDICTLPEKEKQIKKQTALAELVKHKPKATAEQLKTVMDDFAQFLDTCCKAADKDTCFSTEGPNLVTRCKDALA
Procedure: Blood of Bab/c mice was collected under anesthesia via heart puncture. […] Human serum was purchased from Sigma-Aldrich. In order to guarantee a stable pH, all sera were buffered with 150 mM phosphate to pH 7.4 by dissolving the necessary amounts of Na2HPO4 and NaH2PO4 directly in the serum. […] The samples were then incubated in the autosampler at 37 °C and analyzed every hour for 4 or 5 h and after 24 h. Between each sample a pure water blank was measured. For measurements with 10 min intervals the same procedure was followed, but the blank measurements were omitted. For SEC-ICP-MS measurements an Agilent 1260 Infinity system coupled to an Agilent 7800 ICP-HRMS equipped with a dynamic reaction cell was used. Oxygen (purity 5.5, Messer Austria GmbH, Gumpoldskirchen, Austria) was used as reaction gas.

[1] = equimolar to 9 mg/kg oxaliplatin, days 4, 8, 12
[2] = pH 7.4, 10 min intervals, 0 min
[3] = pH 7.4, 10 min intervals, 10 min
[4] = pH 7.4, 10 min intervals, 20 min
[5] = pH 7.4, 10 min intervals, 30 min
[6] = pH 7.4, 10 min intervals, 40 min
[7] = pH 7.4, 10 min intervals, 50 min
[8] = pH 7.4, 10 min intervals, 60 min

Row | SMILES | Pt195 in HMWF (albumin-bound) (albumin (mouse serum); [2]) [%] | Pt195 in LMWF (albumin (mouse serum); [2]) [%] | Pt195 in HMWF (albumin-bound) (albumin (mouse serum); [3]) | Pt195 in LMWF (albumin (mouse serum); [3]) [%] | Pt195 in HMWF (albumin-bound) (albumin (mouse serum); [4]) [%] | Pt195 in LMWF (albumin (mouse serum); [4]) [%] | Pt195 in HMWF (albumin-bound) (albumin (mouse serum); [5]) [%] | Pt195 in LMWF (albumin (mouse serum); [5]) [%] | Pt195 in HMWF (albumin-bound) (albumin (mouse serum); [6]) [%] | Pt195 in LMWF (albumin (mouse serum); [6]) [%] | Pt195 in HMWF (albumin-bound) (albumin (mouse serum); [7]) [%] | Pt195 in LMWF (albumin (mouse serum); [7]) [%] | Pt195 in HMWF (albumin-bound) (albumin (mouse serum); [8]) [%] | Pt195 in LMWF (albumin (mouse serum); [8]) [%] | Pt195 in LMWF (albumin (mouse serum); pH 7.4, 1 h intervals, 0 h) [%] | Pt195 in HMWF (albumin-bound) (albumin (mouse serum); pH 7.4, 1 h intervals, 1 h) | Pt195 in LMWF (albumin (mouse serum); pH 7.4, 1 h intervals, 1 h) [%] | Pt195 in HMWF (albumin-bound) (albumin (mouse serum); pH 7.4, 1 h intervals, 2 h) | Pt195 in LMWF (albumin (mouse serum); pH 7.4, 1 h intervals, 2 h) [%] | Pt195 in HMWF (albumin-bound) (albumin (mouse serum); pH 7.4, 1 h intervals, 3 h) [%] | further results
1 | CC(=O)[O][Pt-2]12([O]C(=O)NCCOCCOCCOCCOCCN3C(=O)C=CC3=O)([NH2+][C@@H]3CCCC[C@H]3[NH2+]1)[O]C(=O)C(=O)[O]2 [Mal-Ox-OAc, (OC-6–34)-Acetato[(1R,2R)-1,2-cyclohexane-1,2-diamino][ (14-(2,5-dioxo-2,5-dihydro-1H-pyrrol-1-yl)-3,6,9,12-tetraoxatetradecyl)-carbamato]-oxalato platinum(IV)] | 36 | 64 | 58% and ~60% | 42 | 68 | 32 | 74 | 26 | 78 | 22 | 79 | 21 | 80 | 20 | 66 | 75% | 25 | 74% | 26 | 74 | Impact on tumor growth (CT26 colon cancer cells; [1]): distinctly reduced tumor growth; Increase of overall survival compared to solvent control (CT26 colon cancer cells; [1]): ~50%; Prolonged overall survival compared to solvent-treated animals (CT26 colon cancer cells; [1]): about 10 days; Pt195 in LMWF (albumin (mouse serum); pH 7.4, 1 h intervals, 3 h): 26%; Pt195 in HMWF (albumin-bound) (albumin (mouse serum); pH 7.4, 1 h intervals, 4 h): 74%; Pt195 in LMWF (albumin (mouse serum); pH 7.4, 1 h intervals, 4 h): 26%; Pt195 in HMWF (albumin-bound) (albumin (mouse serum); pH 7.4, 1 h intervals, 24 h): 75%; Pt195 in LMWF (albumin (mouse serum); pH 7.4, 1 h intervals, 24 h): 25%
2 | CC(=O)[O][Pt-2]12([O]C(=O)NCCOCCOCCOCCOc3ccc(-c4nnc(S(C)(=O)=O)o4)cc3)([NH2+][C@@H]3CCCC[C@H]3[NH2+]1)[O]C(=O)C(=O)[O]2 [PODS-Ox-OAc, (OC-6–34)-Acetato[(1R,2R)-1,2-cyclohexane-1,2-diamino][(2-(2-(2-(2-(4-(5-(methylsulfonyl)-1,3,4-oxadiazol-2-yl)-phenoxy)-ethoxy)-ethoxy)-ethoxy)-ethyl)-carbamato]-oxalato platinum(IV)] | 34 | 66 | 59% and ~60% | 41 | 71 | 29 | 78 | 22 | 83 | 17 | 85 | 15 | 87 | 13 | 70 | 82% and ~80% | 18 | 80% | 20 | 80 | Impact on tumor growth (CT26 colon cancer cells; [1]): slight remission or stable disease; Increase of overall survival compared to solvent control (CT26 colon cancer cells; [1]): ~80%; Tolerability (body weight) (CT26 colon cancer cells; three administrations over 2 weeks (days 4, 8, 12)): well-tolerated; Pt195 in HMWF (albumin-bound) (albumin (mouse serum); pH 7.4, 1 h intervals, 0 h): 30%; Pt195 in LMWF (albumin (mouse serum); pH 7.4, 1 h intervals, 3 h): 20%; Pt195 in HMWF (albumin-bound) (albumin (mouse serum); pH 7.4, 1 h intervals, 4 h): 79%; Pt195 in LMWF (albumin (mouse serum); pH 7.4, 1 h intervals, 4 h): 21%; Pt195 in HMWF (albumin-bound) (albumin (mouse serum); pH 7.4, 1 h intervals, 24 h): 80%; Pt195 in LMWF (albumin (mouse serum); pH 7.4, 1 h intervals, 24 h): 20%
3 | CC(=O)[O][Pt-2]12([O]C(=O)NCCOCCOCCOCCOC(=O)C3=CCCCC3S(=O)(=O)Nc3ccc(F)cc3F)([NH2+]C3CCCCC3[NH2+]1)[O]C(=O)C(=O)[O]2 (mixture of isomers) [DFSA-Ox-OAc, (OC-6–34)-Acetato[(1R,2R)-1,2-cyclohexane-1,2-diamino][(1-(6-(N-(2,4-difluorophenyl)-sulfamoyl)-cyclohex-1-en-1-yl)-1-oxo-2,5,8,11-tetraoxatridecan-13-yl)-carbamato]-oxalato platinum(IV)] | 2 | 98 | 18% | 82 | 32 | 68 | 43 | 57 | 52 | 48 | 58 | 42 | 63 | 37 | 99 | 65% | 35 | 78% and ~80% | 22 | 82 | Pt195 in LMWF (albumin (mouse serum); pH 7.4, 1 h intervals, 3 h): 18%; Pt195 in HMWF (albumin-bound) (albumin (mouse serum); pH 7.4, 1 h intervals, 4 h): 82%; Pt195 in LMWF (albumin (mouse serum); pH 7.4, 1 h intervals, 4 h): 18%; Pt195 in HMWF (albumin-bound) (albumin (mouse serum); pH 7.4, 1 h intervals, 24 h): 70%; Pt195 in LMWF (albumin (mouse serum); pH 7.4, 1 h intervals, 24 h): 30%; Maximum albumin binding (albumin (mouse serum); reached after several hours): 82%
